According to ChEMBL document CHEMBL3400015, “Tertiary amides of Salinomycin: A new group of antibacterial agents against Bacillus anthracis and methicillin-resistant Staphylococcus epidermidis” (Bioorg Med Chem Lett, 2015):

Experiments:
[1] = test system: Staphylococcus epidermidis; assay: Bactericidal activity against Staphylococcus epidermidis ATCC 12228 after 24 hrs; format: functional; settings: ATCC 12228, 24 h, read-out: MBC99.9
[2] = test system: Bacillus subtilis; assay: Genotoxicity in rec-positive Bacillus subtilis H17 at 2 ug/9 mm disc after 24 hrs by disc diffusion method; format: toxicity, organism-based
[3] = test system: Staphylococcus epidermidis; assay: Antimicrobial activity against methicillin-resistant Staphylococcus epidermidis isolate 458/11 after 18 hrs by twofold serial broth dilution method; format: functional; settings: isolate 458/11, 18 h
[4] = test system: Escherichia coli; assay: Bactericidal activity against Escherichia coli NCTC 8196 after 24 hrs; format: functional; settings: NCTC 8196, 24 h, read-out: MBC99.9
[5] = test system: Staphylococcus epidermidis; assay: Antimicrobial activity against methicillin-resistant Staphylococcus epidermidis isolate 454/11 after 18 hrs by twofold serial broth dilution method; format: functional; settings: isolate 454/11, 18 h
[6] = test system: Staphylococcus epidermidis; assay: Bactericidal activity against methicillin-resistant Staphylococcus epidermidis isolate 458/11 after 24 hrs; format: functional; settings: isolate 458/11, 24 h, read-out: MBC99.9
[7] = test system: Staphylococcus epidermidis; assay: Antimicrobial activity against Staphylococcus epidermidis ATCC 35984 after 18 hrs by twofold serial broth dilution method; format: functional; settings: ATCC 35984, 18 h
[8] = test system: Bacillus subtilis; assay: Genotoxicity in rec-negative Bacillus subtilis M45 at 2 ug/9 mm disc after 24 hrs by disc diffusion method; format: toxicity, organism-based
[9] = test system: Staphylococcus aureus; assay: Antimicrobial activity against Staphylococcus aureus ATCC 25923 after 18 hrs by twofold serial broth dilution method; format: functional; settings: ATCC 25923, 18 h
[10] = test system: Staphylococcus aureus; assay: Bactericidal activity against Staphylococcus aureus NCTC 4163 after 24 hrs; format: functional; settings: NCTC 4163, 24 h, read-out: MBC99.9
[11] = test system: Staphylococcus epidermidis; assay: Antimicrobial activity against methicillin-resistant Staphylococcus epidermidis isolate 460/11 after 18 hrs by twofold serial broth dilution method; format: functional; settings: isolate 460/11, 18 h
[12] = test system: Staphylococcus epidermidis; assay: Antimicrobial activity against methicillin-resistant Staphylococcus epidermidis isolate 422/10 after 18 hrs by twofold serial broth dilution method; format: functional; settings: isolate 422/10, 18 h
[13] = test system: Staphylococcus epidermidis; assay: Bactericidal activity against methicillin-resistant Staphylococcus epidermidis isolate 407/10 after 24 hrs; format: functional; settings: isolate 407/10, 24 h, read-out: MBC99.9
[14] = test system: Staphylococcus aureus; assay: Bactericidal activity against Staphylococcus aureus […] after 24 hrs; format: functional; settings: read-out: MBC99.9
[15] = test system: Staphylococcus epidermidis; assay: Antimicrobial activity against methicillin-resistant Staphylococcus epidermidis isolate 470/11 after 18 hrs by twofold serial broth dilution method; format: functional; settings: isolate 470/11, 18 h
[16] = test system: Staphylococcus epidermidis; assay: Antimicrobial activity against methicillin-resistant Staphylococcus epidermidis isolate 459/11 after 18 hrs by twofold serial broth dilution method; format: functional; settings: isolate 459/11, 18 h
[17] = test system: Staphylococcus epidermidis; assay: Bactericidal activity against methicillin-resistant Staphylococcus epidermidis isolate 403/10 after 24 hrs; format: functional; settings: isolate 403/10, 24 h, read-out: MBC99.9
[18] = test system: Pseudomonas aeruginosa; assay: Bactericidal activity against Pseudomonas aeruginosa NCTC 6749 after 24 hrs; format: functional; settings: NCTC 6749, 24 h, read-out: MBC99.9
[19] = test system: Pseudomonas aeruginosa; assay: Antimicrobial activity against Pseudomonas aeruginosa NCTC 6749 after 18 hrs by twofold serial broth dilution method; format: functional; settings: NCTC 6749, 18 h
[20] = test system: Escherichia coli; assay: Antimicrobial activity against Escherichia coli ATCC 25922 after 18 hrs by twofold serial broth dilution method; format: functional; settings: ATCC 25922, 18 h
[21] = test system: Staphylococcus epidermidis; assay: Bactericidal activity against methicillin-resistant Staphylococcus epidermidis isolate 455/11 after 24 hrs; format: functional; settings: isolate 455/11, 24 h, read-out: MBC99.9
[22] = test system: Staphylococcus epidermidis; assay: Antimicrobial activity against methicillin-resistant Staphylococcus epidermidis isolate 469/11 after 18 hrs by twofold serial broth dilution method; format: functional; settings: isolate 469/11, 18 h
[23] = test system: Pseudomonas aeruginosa; assay: Bactericidal activity against Pseudomonas aeruginosa ATCC 15442 after 24 hrs; format: functional; settings: ATCC 15442, 24 h, read-out: MBC99.9
[24] = test system: Escherichia coli; assay: Bactericidal activity against Escherichia coli ATCC 25922 after 24 hrs; format: functional; settings: ATCC 25922, 24 h, read-out: MBC99.9
[25] = test system: Bacillus anthracis; assay: Antimicrobial activity against Bacillus anthracis 34F2 after 18 hrs by twofold serial broth dilution method; format: functional; settings: 34F2, 18 h
[26] = test system: Escherichia coli; assay: Bactericidal activity against Escherichia coli ATCC 10538 after 24 hrs; format: functional; settings: ATCC 10538, 24 h, read-out: MBC99.9
[27] = test system: Escherichia coli; assay: Antimicrobial activity against Escherichia coli ATCC 10538 after 18 hrs by twofold serial broth dilution method; format: functional; settings: ATCC 10538, 18 h
[28] = test system: Staphylococcus epidermidis; assay: Antimicrobial activity against methicillin-resistant Staphylococcus epidermidis isolate 424/10 after 18 hrs by twofold serial broth dilution method; format: functional; settings: isolate 424/10, 18 h
[29] = test system: Staphylococcus epidermidis; assay: Antimicrobial activity against methicillin-resistant Staphylococcus epidermidis isolate 403/10 after 18 hrs by twofold serial broth dilution method; format: functional; settings: isolate 403/10, 18 h
[30] = test system: Staphylococcus epidermidis; assay: Antimicrobial activity against methicillin-resistant Staphylococcus epidermidis isolate 407/10 after 18 hrs by twofold serial broth dilution method; format: functional; settings: isolate 407/10, 18 h
[31] = test system: Staphylococcus aureus; assay: Antimicrobial activity against Staphylococcus aureus […] after 18 hrs by twofold serial broth dilution method; format: functional
[32] = test system: Staphylococcus epidermidis; assay: Bactericidal activity against methicillin-resistant Staphylococcus epidermidis isolate 404/10 after 24 hrs; format: functional; settings: isolate 404/10, 24 h, read-out: MBC99.9
[33] = test system: Staphylococcus epidermidis; assay: Bactericidal activity against methicillin-resistant Staphylococcus epidermidis isolate 461/11 after 24 hrs; format: functional; settings: isolate 461/11, 24 h, read-out: MBC99.9
[34] = test system: Pseudomonas aeruginosa; assay: Antimicrobial activity against Pseudomonas aeruginosa ATCC 27853 after 18 hrs by twofold serial broth dilution method; format: functional; settings: ATCC 27853, 18 h
[35] = test system: Staphylococcus aureus; assay: Bactericidal activity against Staphylococcus aureus ATCC 6538 after 24 hrs; format: functional; settings: ATCC 6538, 24 h, read-out: MBC99.9
[36] = test system: Staphylococcus epidermidis; assay: Antimicrobial activity against methicillin-resistant Staphylococcus epidermidis isolate 455/11 after 18 hrs by twofold serial broth dilution method; format: functional; settings: isolate 455/11, 18 h
[37] = test system: Pseudomonas aeruginosa; assay: Antimicrobial activity against Pseudomonas aeruginosa ATCC 15442 after 18 hrs by twofold serial broth dilution method; format: functional; settings: ATCC 15442, 18 h
[38] = test system: Staphylococcus epidermidis; assay: Bactericidal activity against methicillin-resistant Staphylococcus epidermidis isolate 460/11 after 24 hrs; format: functional; settings: isolate 460/11, 24 h, read-out: MBC99.9
[39] = test system: Staphylococcus epidermidis; assay: Bactericidal activity against methicillin-resistant Staphylococcus epidermidis isolate 424/10 after 24 hrs; format: functional; settings: isolate 424/10, 24 h, read-out: MBC99.9
[40] = test system: Pseudomonas aeruginosa; assay: Bactericidal activity against Pseudomonas aeruginosa ATCC 27853 after 24 hrs; format: functional; settings: ATCC 27853, 24 h, read-out: MBC99.9
[41] = test system: Staphylococcus epidermidis; assay: Bactericidal activity against Staphylococcus epidermidis ATCC 35984 after 24 hrs; format: functional; settings: ATCC 35984, 24 h, read-out: MBC99.9
[42] = test system: Staphylococcus epidermidis; assay: Bactericidal activity against methicillin-resistant Staphylococcus epidermidis isolate 459/11 after 24 hrs; format: functional; settings: isolate 459/11, 24 h, read-out: MBC99.9
[43] = test system: Staphylococcus epidermidis; assay: Antimicrobial activity against methicillin-resistant Staphylococcus epidermidis isolate 457/11 after 18 hrs by twofold serial broth dilution method; format: functional; settings: isolate 457/11, 18 h
[44] = test system: Escherichia coli; assay: Antimicrobial activity against Escherichia coli NCTC 8196 after 18 hrs by twofold serial broth dilution method; format: functional; settings: NCTC 8196, 18 h

CCCCN(CCCC)C(=O)[C@H](CC)[C@H]1CC[C@H](C)[C@H]([C@@H](C)[C@H](O)[C@H](C)C(=O)[C@H](CC)[C@H]2O[C@]3(C=C[C@@H](O)[C@]4(CC[C@@](C)([C@H]5CC[C@](O)(CC)[C@H](C)O5)O4)O3)[C@H](C)C[C@@H]2C)O1
64 µg/mL: MIC [25]
29 mm: diameter of the inhibition zone (DIZ) [2]
30 mm: diameter of the inhibition zone (DIZ) [8]
4 µg/mL: MIC [3] | MIC [5] | MIC [16] | MIC [43]
16 µg/mL: MIC [36]
256 µg/mL: MBC [6] | MBC [13] | MBC [17] | MBC [21] | MBC [35] | MBC [39] | MBC [42]
8 µg/mL: MIC [7] | MIC [9] | MIC [11] | MIC [12] | MIC [15] | MIC [22] | MIC [28] | MIC [29] | MIC [30] | MIC [31]
> 256 µg/mL: MBC [1] | MBC [4] | MBC [10] | MBC [14] | MBC [18] | MIC [19] | MIC [20] | MBC [23] | MBC [24] | MBC [26] | MIC [27] | MBC [32] | MBC [33] | MIC [34] | MIC [37] | MBC [38] | MBC [40] | MBC [41] | MIC [44]

CC[C@@H](C(=O)[C@@H](C)[C@@H](O)[C@H](C)[C@@H]1O[C@@H]([C@@H](CC)C(=O)N2CCNCC2)CC[C@@H]1C)[C@H]1O[C@]2(C=C[C@@H](O)[C@]3(CC[C@@](C)([C@H]4CC[C@](O)(CC)[C@H](C)O4)O3)O2)[C@H](C)C[C@@H]1C
256 µg/mL: MIC [15] | MBC [32] | MIC [36] | MIC [43]
64 µg/mL: MIC [16] | MIC [25] | MIC [28]
14 mm: diameter of the inhibition zone (DIZ) [2] | diameter of the inhibition zone (DIZ) [8]
> 256 µg/mL: MBC [1] | MBC [4] | MBC [6] | MBC [10] | MBC [13] | MBC [14] | MBC [17] | MBC [18] | MIC [19] | MIC [20] | MBC [21] | MBC [23] | MBC [24] | MBC [26] | MIC [27] | MBC [33] | MIC [34] | MBC [35] | MIC [37] | MBC [38] | MBC [39] | MBC [40] | MBC [41] | MBC [42] | MIC [44]
128 µg/mL: MIC [3] | MIC [5] | MIC [7] | MIC [9] | MIC [11] | MIC [12] | MIC [22] | MIC [29] | MIC [30] | MIC [31]
